Source: patent US20170007561A1, “CONTEMPORANEOUS, HETEROGENEOUSLY-ORIENTED, MULTI-TARGETED THERAPEUTIC MODIFICATION AND/OR MODULATION OF DISEASE BY ADMINISTRATION OF SULFUR-CONTAINING, AMINO ACID-SPECIFIC SMALL MOLECULES” (BioNumerik Pharmaceuticals, Inc., priority 2014, published 2017)
Several values for one entry are separate records, joined by “and”; a condition that tells them apart may be missing. Equal entries are not always repeated. Where two headings read alike, the source gives them in different places.

Experiments:
recombinant human Prx 1 = recombinant human Prx 1 (Homo sapiens, UniProt Q06830); test: Prx assay coupled to Trx, TrxR and NADPH; format: biochemical; settings: initial velocity
Experimental: Prx activity in the buffer control (Apo-Prx) and the Tavocept-treated sample (Prx-mesna) was determined using the Prx assay outlined in FIG. 58. A typical assay mixture was 150 μL in final volume and contained HEPES Buffer (45 mM, pH 7.0, 1 mM EDTA), 350 μM NADPH, 0.12 μM rat liver TrxR, 80 μM insulin, 2.9 μM human Trx 1, and Prx (4.8 or 2.4 μM per assay). Assays were initiated by the addition of H2O2 (100 μM) and were monitored at 340 nm at 25° C. for 30 minutes using a using a Molecular Devices SpectraMax Plus UV/vis plate reader. Activity was calculated using a 4 minute linear portion of each assay and then this rate was converted into percent of control with the buffer treated Prx 1 reaction (Apo-Prx) serving as a 100% control. See, FIG. 59. […] This reduction in rate is approximately 43% in assays containing 2.4 μM Prx and 23% in assays containing 4.8 μM Prx. See, FIG. 59. […] Therefore, as the concentration of unmodified Prx increases, the turnover more nearly approaches the buffer control Apo-Prx samples.

[1] = system: Stage IV primary adenocarcinoma of the lung; test: Tavocept Phase III Clinical Trial (interim analysis); format: in vivo, human
From the text: In the Tavocept Phase III Clinical Trial pre-specification was made through stratification factors including sex (i.e., male versus female) and taxane treatment (i.e., paclitaxel versus docetaxel). Eligible patients had not received prior drug treatment for their cancer, and inclusion in the trial was also allowed for patients who had relapsed following surgery for earlier stage disease as well as patients with central nervous system metastasis. A total of 540 patients were enrolled on the trial.
The primary endpoint of this study was overall survival (OS); defined as the time period from the date of patient randomization to the date of death due to any cause.
Patient eligibility was determined by compliance with protocol-specified inclusion and exclusion criteria.
All patients received standard combination chemotherapy (taxane agent plus cisplatin) and either Tavocept or placebo.
Treatment was administered every 3 weeks for a maximum of 6 cycles (one treatment cycle=21 days).
The primary endpoint for analysis was the duration of overall survival, defined as the time from the date of randomization to the date of death due to any cause. The number of mortality events used for the final analysis depended upon the number of patients enrolled into the study (provided the sample size was adjusted at the interim analysis). For the primary analysis, the expected number of total mortality events was approximately 416 mortality events for a sample size of 575 patients.
The one-sided log-rank test was performed in order to allow the application of the adaptive methodology. Details of this 2-stage adaptive design are described below. Kaplan-Meier survival curves (including identification of censored observations) was presented by treatment group, as well as median survival times and their 95% confidence intervals.
The following specific endpoints were evaluated with pre-specified analyses in order to evaluate for potential clinically and statistically significant differences between Tavocept- and placebo-treated patients.
The incidence of cisplatin renal toxicity and anemia, and the impact of emesis on daily life were analyzed using the Cochran-Mantel-Haenszel (CMH) tests for proportions. The CMH test was applied in the comparison between Tavocept and placebo where adjustment for prognostic factors is clinically important (e.g., adjusting for baseline characteristics). To control for Type I error due to multiple comparisons of safety data, a nominal, 2-sided p-value of less than 0.0125 was used for each comparison of renal toxicity, anemia, and emesis.

γ-Glutamyltranspeptidase = γ-Glutamyltranspeptidase (Homo sapiens, UniProt P19440); test: γ-Glutamyltranspeptidase activity (summary Table 27); format: biochemical
[2] = cited from earlier work

Chain of recombinant human Prx 1 (Q06830 whole entry): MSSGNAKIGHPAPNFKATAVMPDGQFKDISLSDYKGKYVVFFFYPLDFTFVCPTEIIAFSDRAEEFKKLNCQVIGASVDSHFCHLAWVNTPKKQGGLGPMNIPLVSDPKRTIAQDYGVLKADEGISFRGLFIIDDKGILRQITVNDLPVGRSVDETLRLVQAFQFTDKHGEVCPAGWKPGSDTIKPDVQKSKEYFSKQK
Chain of γ-Glutamyltranspeptidase (P19440 whole entry): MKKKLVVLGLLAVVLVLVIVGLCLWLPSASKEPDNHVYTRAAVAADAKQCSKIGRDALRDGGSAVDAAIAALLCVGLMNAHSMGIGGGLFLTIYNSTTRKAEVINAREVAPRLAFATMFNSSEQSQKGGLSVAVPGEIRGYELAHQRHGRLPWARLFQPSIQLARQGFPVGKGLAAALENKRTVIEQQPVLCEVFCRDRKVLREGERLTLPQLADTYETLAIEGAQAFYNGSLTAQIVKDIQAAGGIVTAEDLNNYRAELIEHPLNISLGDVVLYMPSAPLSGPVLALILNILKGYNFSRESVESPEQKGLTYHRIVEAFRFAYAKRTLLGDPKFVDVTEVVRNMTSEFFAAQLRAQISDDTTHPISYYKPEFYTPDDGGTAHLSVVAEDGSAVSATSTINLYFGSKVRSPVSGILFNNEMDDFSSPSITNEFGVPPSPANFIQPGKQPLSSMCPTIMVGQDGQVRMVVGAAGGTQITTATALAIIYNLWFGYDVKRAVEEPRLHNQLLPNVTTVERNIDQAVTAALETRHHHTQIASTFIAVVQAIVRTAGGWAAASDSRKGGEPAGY

O=S(=O)([O-])CCSSCCS(=O)(=O)[O-].[Na+].[Na+] [Tavocept, disodium 2,2′-dithio-bis-ethane sulfonate]
activity of Tavocept-modified Prx versus Apo-Prx (recombinant human Prx 1): less active
Median survival advantage versus placebo ([1]; Male & Female Non-Smokers receiving paclitaxel and cisplatin): 12 months
Median survival advantage versus placebo ([1]; PS 1 ECOG Performance Status males and females receiving paclitaxel and cisplatin): 4.0 months
Overall median survival advantage versus placebo ([1]; all subjects, paclitaxel or docetaxel plus cisplatin): greater than 2 month
Protection against chemotherapy-induced kidney toxicity ([1]; compared to placebo): improvement in the relative creatine decrease from baseline in favor of Tavocept
Anemia ([1]; compared to placebo arm): reduced anemia
Kaplan Meier overall survival curve slope ([1]; during administration of up to 6 cycles, relative to Placebo arm): flattening of the slope of the survival curve for the Tavocept arm
Median survival advantage versus placebo ([1]; female subjects greater than or equal to 65 years of age receiving paclitaxel and cisplatin): 2.1 months
Survival advantage ([1]; female subjects with CNS Metastases present, paclitaxel plus cisplatin): Survival advantage in favor of Tavocept
Median survival advantage versus placebo ([1]; male and female subjects greater than or equal to 65 years of age receiving paclitaxel and cisplatin): 3.5 months
Median period of additional survival after starting new chemotherapy, longer than placebo-treated patients ([1]; patients previously receiving Tavocept, paclitaxel and cisplatin): 3.4 months
Median survival advantage versus placebo ([1]; subjects greater than or equal to 65 years of age): 3 months
Cellular consequence of BNP7787-modification and/or modulation: γ-glutamyltranspeptidase (γ-Glutamyltranspeptidase): can inhibit γ-glutamyltranspeptidase and aminopeptidase N enzyme
Tavocept in plasma ([2]; 41 g/m^2 Tavocept): ~14 mM
concentrations of Tavocept achieved in the clinic ([2]; as high as): ≤ 18 mM
pharmacologically achievable plasma levels ([2]; doses of 18.4 g/m^2 and higher): ≥ 8 mM
Plasma concentrations achieved in clinical trials ([2]; in vivo): 10 mM
pharmacologically achievable concentrations ([2]; in vivo): 6-10 mM
Cmax ([2]; read-out: Cmax values in plasma, dose of 18.4 g/m^2): ≥ 10000 µM and ~10000 µM
Cmax ([2]; read-out: Cmax values in plasma, doses as high as 41 g/m^2, typical): ~10000 µM
Cmax ([2]; read-out: typical Cmax values, administered at 18 g/m^2): ~10000 µM
